Values quoted from earlier work, collected in US20240398793A1, “Methods of Treating Lymphedema” (Celltaxis, LLC, priority 2021, published 2024).
“Also recorded” adds a separate entry of the source.

Experiments:
LTA4H aminopeptidase [1] = molecular target: T1, LTA4H aminopeptidase (Homo sapiens (Human), UniProt P09960); settings: read-out: Aminopeptidase IC50 ± SEM; cited from earlier work
human lymphedema = settings: adult lymphedema subjects, open-label and placebo-controlled pilot; cited from earlier work
[2] = system: experimental acquired lymphedema; settings: cited from earlier work
LTA4H epoxide hydrolase = LTA4H epoxide hydrolase (Homo sapiens (Human), UniProt P09960); settings: read-out: EH (Epoxide Hydrolase) IC50 ± SEM; cited from earlier work
Chain of LTA4H epoxide hydrolase (P09960 whole entry): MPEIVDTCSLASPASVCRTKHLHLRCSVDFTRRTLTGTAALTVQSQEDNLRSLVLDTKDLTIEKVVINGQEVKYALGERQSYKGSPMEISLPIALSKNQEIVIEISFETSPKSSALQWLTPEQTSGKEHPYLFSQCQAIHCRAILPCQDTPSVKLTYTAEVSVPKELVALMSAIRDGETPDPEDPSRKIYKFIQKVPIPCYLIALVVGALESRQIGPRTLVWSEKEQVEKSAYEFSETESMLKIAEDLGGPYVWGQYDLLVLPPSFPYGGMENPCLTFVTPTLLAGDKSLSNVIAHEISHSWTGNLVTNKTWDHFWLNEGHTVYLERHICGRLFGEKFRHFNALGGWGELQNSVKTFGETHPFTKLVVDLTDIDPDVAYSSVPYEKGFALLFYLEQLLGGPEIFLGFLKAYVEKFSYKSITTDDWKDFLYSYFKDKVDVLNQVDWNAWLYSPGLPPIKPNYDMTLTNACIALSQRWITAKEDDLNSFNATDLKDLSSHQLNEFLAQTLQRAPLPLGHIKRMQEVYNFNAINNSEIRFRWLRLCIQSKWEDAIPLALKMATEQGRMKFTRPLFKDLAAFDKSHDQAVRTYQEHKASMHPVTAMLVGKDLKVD

[3] = system: lymphedema of the lower limb; settings: Phase 2, lymphedema of the lower limb; cited from earlier work
aminopeptidases = settings: Bhatt et al. (2017); Inoi et al. (1995); cited from earlier work
LTA4H aminopeptidase [4] = molecular target: T1, LTA4H aminopeptidase; settings: Bhatt et al. (2017); Inoi et al. (1995); cited from earlier work

T1 sequence (P09960 whole entry): as above

| Structure (SMILES) | IC50 (LTA4H aminopeptidase [1]) [µM] | also measured |
| --- | --- | --- |
| O=C(Cc1ccc(O)cc1)c1ccc(O)cc1O [Compound 10] | > 100 |  |
| O=c1c(-c2ccc(O)cc2)coc2cc(O)ccc12 [Compound 11] | > 100 |  |
| CC(=O)Oc1ccc(/C=C/c2cc(OC(C)=O)cc(OC(C)=O)c2)cc1 [Compound 4] | > 100 |  |
| COc1cc(O)cc(CCc2cccc(O)c2)c1 [Compound 8] | > 100 |  |
| CC(C(=O)O)c1cccc(C(=O)c2ccccc2)c1 (stereo not shown) [ketoprofen] |  | skin thickness and cutaneous histopathology (human lymphedema): salutary effects; also recorded: improve skin thickness; lymphedema disease burden ([2]; mice, systemic administration): documented reversal of disease burden; also recorded: disease burden was reversed |
| CCOc1cc(O)cc(CCc2ccc(O)cc2)c1 [Compound 7] | > 100 |  |
| O=c1c(-c2ccccc2)coc2cc(O)ccc12 [Compound 13] | > 100 |  |
| O=c1c(-c2ccc(O)cc2)coc2c(O)cccc12 [Compound 12] | 62.7 ± 13.3 | IC50 (LTA4H epoxide hydrolase): 7.3 ± 0.8 µM |
| COc1cc(O)cc(CCc2ccc(O)cc2)c1 [Compound 6] | > 100 |  |
| O=c1c(-c2ccc(O)cc2)coc2c3c(ccc12)OCO3 [Compound 14] | 20.6 ± 3.3 | IC50 (LTA4H epoxide hydrolase): 20.6 ± 24 µM |
| CC(C)C[C@H](NC(=O)[C@@H](O)[C@H](N)Cc1ccccc1)C(=O)O [Ubenimex] |  | improvement in skin thickness, limb volume and bioimpedance over placebo [3]: did not identify an improvement; aminopeptidase inhibition spectrum (aminopeptidases): broad spectrum aminopeptidase inhibitor; LTA4H selectivity (LTA4H aminopeptidase [4]): non-selective LTA4H inhibitor; edema, lymphatic function, lymphatic architecture ([2]; murine model of lymphedema): reversed edema, improved lymphatic function, and restored lymphatic architecture |
| COc1cc(O)cc(CCc2ccccc2O)c1 [Compound 9] | > 100 |  |
| Cc1ccc2c(=O)c(-c3ccc(O)cc3)coc2c1O [Compound 15] | 69.2 ± 10.9 |  |
